The values below come from patent US20250057959A1, “PHOSPHANE GOLD(I)-N-HETEROCYCLIC CARBENE COMPLEXES FOR TREATING CANCER” (KING FAHD UNIVERSITY OF PETROLEUM AND MINERALS, priority 2023, published 2025).

Structures are written as SMILES. “Also recorded” adds a separate entry of the source.

For data set [1], the system named is SKOV3-MCTSs. In words: SKOV3-MCTS spheroid volume. It is filed as cell-based, human. Particulars: for SKOV3-MCTS volume decrease with respect to control: 0.5 μM. As for the experimental part:
To generate single spheroids with defined size, 1.0×10^3/mL SKOV3 cells were seeded 4 days under nonadherent conditions in U-bottom 96-well plates coated twice with 20 mg/mL of poly(2-hydroxyethyl methacrylate) (poly-HEMA; Sigma) in 95% ethanol. Spheroid size was measured at days 0, 3, and 7 after drug treatment initiation using an inverted microscope (Eclipse TS/100, Nikon, Tokyo, Japan) with photomicrographic systems DS camera control unit DS-L2. Spheroid volumes were calculated using the formula (width^2×length×3.14)/6.

Data set [2] concerns SKOV3 cells. In words: Cytoskeleton organization, immunofluorescence confocal microscopy. It is filed as cell-based, human. Particulars: 24 hours treatment. As for the experimental part: Cell migration was assessed using the in vitro wound healing assay. Briefly, cells were grown to confluence and then treated with complex 6. After 24 hours of treatment, the medium was removed and cells were washed then scraped with a pipet tip to create a “wound” in the monolayer and washed again. Fresh medium containing 2% FCS was added. Wounds were photographed at times 0, 24, and 48 hours using an inverted microscope (EclipseTS/100, Nikon, Instruments Europe BV Amsterdam, The Netherlands) at magnification 4. Migration was assessed by measuring the cell-free area (in pixels) with ImageJ-NIH (National Institutes of Health) tool software. The cytoskeleton organization was evaluated by culturing SKOV3 cells onto glass coverslips and performing immunofluorescence staining for α-tubulin and F-actin. SKOV3 cells were treated for 24 hours with complex 6, fixed in 4% paraformaldehyde, permeabilized with 0.5% Triton X-100, and incubated overnight with primary antibody (Table 1) at 4° C. Primary antibody was detected using the appropriate secondary antibody together with phallotoxins (Molecular Probes) and TO-PRO-3 (Thermo Fisher Scientific). Images were acquired using an SP8 confocal microscope (Leica).

For data set [3], the system named is OvCa cells. The data set is described as follows: Western blot of cell cycle regulatory proteins. The following applies: 24 hours. It is filed as cell-based, human. The protocol:
Whole-cell lysates were prepared using cold RIPA buffer [150 mM NaCl, 50 mM Tris-HCl (pH 8), 0.1% SDS, 1% Igepal, and 0.5% desoxycholate sodium] containing a protease inhibitor cocktail (Roche Diagnostics S.p.a., Milan, Italy), phosphatase inhibitors 1 mM Na3VO4 and 1 mM NaF (Sigma-Aldrich). Protein concentrations were determined using the BioRad protein assay (Bio-Rad Laboratories, Inc., CA, USA). Equal amounts of proteins were mixed with Laemmli buffer, separated in 4-20% SDS-PAGE (Criterion Precast Gel, BioRad), and blotted onto a nitrocellulose membrane (Amersham, GE Healthcare). Membrane strips were blocked with EveryBilot blocking buffer (Bio-Rad) and incubated at 4° C. overnight with primary antibodies probed with the appropriate antibodies (Table 2) and developed using Immobilon Western chemioluminescent HRP substrate. Images were acquired using a ChemiDoc XRS system (Bio-Rad).

Data set [4] deals with tumor xenografts derived from SKOV3 cells. In words: SKOV3 xenograft tumor growth in athymic nude mice. It is filed as in vivo. Particulars: two injections/week. The protocol:
(§1) Animal experimentation was reviewed and approved by Centro di Riferimento Oncologico di Aviano (CRO) Institutional Organism for Animal Wellbeing (OPBA) and approved by the Italian Ministry of Health (No. 671/2015/PR). All animal experiments were conducted in adherence to the international and institutional committees' ethical guidelines. Ten 4-week-old female athymic nude NU(NCr)-Foxn1^nu mice were purchased from Charles Rivers (Lecco, Italy). SKOV3 (10×10^6 cells/animal) were suspended in BD Matrigel basement membrane matrix (BD Biosciences) (diluted 1:3 in PBS) and inoculated into the animals' right flank. When tumors were palpable, animals were divided into two groups of five mice each, and treated with intratumoral injection of complex 6 (2 mg/kg) or vehicle (10% DMSO, 20% Cremophor Sigma-Aldrich, 70% PBS) two times a week. Body weight and tumors were examined regularly. Tumor size was measured using a digital caliper, and volumes were calculated according to the formula (width^2×length×3.14)/6.

The test system of data set [5] is A2780 and A2780cis cells. The data set is described as follows: mitROS generation (MitoSOX red), flow cytometry. It is filed as cell-based, human. The protocol: Results were detected by flow cytometry on a BD FACSCanto II flow cytometer. Data were analyzed using BD FACSDiva version 8.0.1 software (BD Biosciences) unless otherwise indicated. To evaluate apoptosis, tumor cells were treated for 48 hours and then stained for 15 minutes with FITC annexin-V (Thermo Fisher Scientific) and 7AAD (BD Pharmingen). […] For B-cell lymphoma/leukemia-2 (Bcl-2) and Bcl-2 associated x protein (Bax) evaluation, cells were fixed and permeabilized using FIX & PERM cell fixation and cell permeabilization kit (Life Technologies). […] The distribution of cells in different cell cycle phases was quantified using ModFit LT 4.0 software (Verity Software House, Topsham, ME, USA).

The test system of data set [6] is adipose-derived stem cells (ADSCs). The data set is described as follows: Cell viability in normal adipose-derived stem cells. The following applies: 72 hours treatment, normal human cells. It is filed as cell-based. The source says:
Human epithelial ovarian cancer A2780 cell line and its cisplatin-resistant clone A2780cis were obtained from Sigma-Aldrich (Milano, Italy). SKOV3 (HTB-77) cells were from the American Type Culture Collection (ATCC). The two cell lines were selected to reflect the two different stages of OvCa and different sensitivity to cisplatin. A2780 cell lines were derived from the ovarian tumor tissue of an untreated patient, while SKOV3 was from the ascitic fluids (after metastasis). Cells were authenticated in the laboratory using PowerPlex 16 HS system (Promega) and GeneMapper ID version 3.2.1 to identify DNA short tandem repeats. […]
4.0×10^3/mL A2780, A2780cis, and SKOV3 cells were seeded in 96-well microplates in 100 μL of culture medium. […] Cell viability was evaluated using 3-(4,5-dimethylthiazol-2-yl)-2,5-diphenyltetrazolium bromide (MTT) assay (Sigma-Aldrich) after 72 hours of treatment. Half maximal inhibitory concentrations (IC50) were calculated using the CalcuSyn software version 2 (Biosoft, Ferguson, MO, USA). Fold resistance was calculated as the ratio of the IC50 of the A2780cis to that of the parental cell line A2780.

Data set [7] in a line: Body weight and physical inspection of xenografted mice. It is filed as in vivo. The following applies: 2 mg/kg intratumoral, two injections/week. The protocol: as §1
The test system of data set [8] is SKOV3 cells. The data set is described as follows: MTT cell viability assay, SKOV3. It is filed as cell-based, human. Particulars: 72 hours treatment. The source says:
Human epithelial ovarian cancer A2780 cell line and its cisplatin-resistant clone A2780cis were obtained from Sigma-Aldrich (Milano, Italy). SKOV3 (HTB-77) cells were from the American Type Culture Collection (ATCC). The two cell lines were selected to reflect the two different stages of OvCa and different sensitivity to cisplatin. A2780 cell lines were derived from the ovarian tumor tissue of an untreated patient, while SKOV3 was from the ascitic fluids (after metastasis). Cells were authenticated in the laboratory using PowerPlex 16 HS system (Promega) and GeneMapper ID version 3.2.1 to identify DNA short tandem repeats. Cell lines were cultured in RPMI-1640 medium containing 10% fetal bovine serum (FBS) (Gibco, Thermo Fisher Scientific, U.S.A), 1% (v/v) of penicillin (10,000 units/mL)-streptomycin (10 mg/mL), and 1% (v/v) L-glutamine (200 mM) (all from Sigma- Aldrich) at 37° C. in a 5% CO2 fully humidified atmosphere. A2780cis cells were continuously exposed to 1 μM cisplatin to maintain cisplatin resistance. Adipose-derived stem cells (ADSCs) were purchased from Lonza and maintained in mesenchymal-stem-cell growth medium Bulletkit MSCGM (Lonza, Verviers, Belgium).
4.0×10^3/mL A2780, A2780cis, and SKOV3 cells were seeded in 96-well microplates in 100 μL of culture medium. Cells were allowed to adhere for 24 hours and then were treated in triplicate with increasing concentrations of gold compounds (0-1 μM). Cisplatin was included as a reference drug. Cell viability was evaluated using 3-(4,5-dimethylthiazol-2-yl)-2,5-diphenyltetrazolium bromide (MTT) assay (Sigma-Aldrich) after 72 hours of treatment. Half maximal inhibitory concentrations (IC50) were calculated using the CalcuSyn software version 2 (Biosoft, Ferguson, MO, USA). Fold resistance was calculated as the ratio of the IC50 of the A2780cis to that of the parental cell line A2780.

`CC(C)c1cccc(C(C)C)c1-n1ccn(-c2c(C(C)C)cccc2C(C)C)[c]1=[Au+][PH](C1CCCCC1)(C1CCCCC1)C1CCCCC1.F[P-](F)(F)(F)(F)F` [Complex 6, [Au(IPr)(C18H33P)] PF6]: the “SKOV3-MCTS volume decrease with respect to control” value in data set [1] (3 days) is “about 60%”. Also, in data set [1] (7 days), the “SKOV3-MCTS volume decrease with respect to control” value is recorded as “about 75%”. The “Effect on SKOV3-MCTSs at 1 μM” value in data set [1] (1 μM) is recorded as “almost entirely diminished the SKOV3-MCTSs; also recorded: completely destroyed spheroids; also recorded: completely destroyed SKOV3-MCTSs”. For the same molecule, in data set [2], the F-actin cytoskeleton organization entry was “irregular disposition and organization of the F-actin cytoskeleton”; the α-tubulin distribution entry is “did not modify α-tubulin distribution”. For the same molecule, in data set [3], the “Expression of G1/S phase proteins (CDKs, cyclins, E2F1, pRB)” value is “down-regulated the expression of CDk2, CDk4, CDk6, CycE, CycD1, CycD3”; the “Expression of cyclin D regulators” value was “increased the expression of Foxo3A and pGSK-30 and decreased that of Cdc25a, PI3KI, pERK1/2, and bRAF”. Also, in data set [4] (2 mg/kg intratumoral), the “Reduction of tumor volume with respect to vehicle-treated mice” value is “more than 80%” and the Tumor mass weight entry is “reduced”. Moreover, the Mean tumor volume in data set [4] (day 35, 2 mg/kg intratumoral, control 869.5±61.9) came to 155.8±84.5 mm^3. The mitROS generation entry in data set [5] is reported as “increased mitochondrial ROS (mitROS) generation in a dose-dependent manner”. For the same molecule, the IC50 in data set [6] turned out to be 2500 nM. The “Physical inspection and body weight” value in data set [7] is given as “normal to physical inspection with a comparable weight with respect to untreated mice”. Half-maximal inhibition in data set [8] (IC50) was put at 580 nM.
